Counter-ions that a name gives are not always drawn.
B1: Solute carrier organic anion transporter family member 1A1 (Rattus norvegicus) (protein)
chain: MEETEKKIATQEGRLFSKMKVFLLSLTCACLTKSLSGVYMNSMLTQIERQFDISTSVAGLINGSFEIGNLFFIVFVSYFGTKLHRPVVIGIGCVIMGLGCLLMSLPHFFMGRYEYETTISPTGNLSSNSFLCMENRTQTLKPTQDPAECVKEMKSLMWICVMVGNIIRGIGETPIVPLGISYIEDFAKSENSPLYIGILEMGKVAGPIFGLLLGSYCAQIYVDIGSVNTDDLTITPSDTRWVGAWWIGFLVCAGVNILTSIPFFFLPKALPKKGQQENVAVTKDGKVEKYGGQAREENLGITKDFLTFMKRLFCNPIYMLFILTSVLQVNGFINKFTFLPKYLEQQYGKSTAEAIFLIGVYSLPPICLGYLIGGFIMKKFKITVKKAAYLAFCLSVFEYLLFLCHFMLTCDNAAVAGLTTSYKGVQHQLHVESKVLADCNTRCSCSTNTWDPVCGDNGVAYMSACLAGCKKFVGTGTNMVFQDCSCIQSLGNSSAVLGLCKKGPECANRLQYFLILTIIISFIYSLTAIPGYMVFLRCVKSEEKSLGVGLHTFCIRVFAGIPAPVYFGALIDRTCLHWGTLKCGQRGACRMYDINSFRHIYLGLPIALRGSSYLPAFFILILMRKFQFPGDIDSSATDHTEMMLGEKESEHTDVHGSPQVENDGELKTKL

Tests used:
[1] = biological target: T1, Solute carrier organic anion transporter family member 1A1 (Rattus norvegicus, UniProt P46720); test: (§1) TP_TRANSPORTER: uptake in Oatp1-expressing COS-7 cells; assay type: functional, cell-based; settings: monkey
T1 sequence (P46720 whole entry): B1 chain

[2] = substrate: C[C@]12CC[C@@H]3c4ccc(O)cc4CC[C@H]3[C@@H]1CC[C@@H]2O[C@@H]1O[C@H](C(=O)O)[C@@H](O)[C@H](O)[C@H]1O; test: as §1; assay type: functional, cell-based

Row | Molecule | Activity [1] | Km [2] [µM]
1 | C[C@]12CC[C@@H]3c4ccc(OS(=O)(=O)O)cc4CC[C@H]3[C@@H]1CCC2=O [ESTRONE SULFURIC ACID] | substrate [+] | 
2 | CNc1nc2c(Cc3cccnc3)c(C)c(OS(=O)(=O)O)c(C)c2s1 [E3040 SULFATE] | substrate [+] | 
3 | B1 |  | 20.4

Reference: ChEMBL document CHEMBL2074169, “Contribution of organic anion transporting polypeptide to uptake of its possible substrates into rat hepatocytes” (J Pharmacol Exp Ther, 1999)
